Measured values as given in US4237135A, “2-(4-Ethyl-1-piperazinyl)-4-phenylquinoline, process for preparation thereof, and composition thereof” (Dainippon Pharmaceutical Co., Ltd., priority 1978, dated 1980).
Like-named read-outs stand apart in the source and are kept apart here.

How the values were obtained:
[1] = test system: hypothermia induced by reserpine; assay: Anti-reserpine activity: antagonistic effect on hypothermia induced by reserpine; assay type: in vivo, male STD-ddY strain mice; details: p.o.; for ED50: Mus musculus, po, 4 h, reserpine 5 mg/kg i.p.
Description: Pharmacological experiments have been done on the compound of the present invention, some known and novel analogous compounds and an antidepressant on the market, as mentioned below. In the experiments, ED50 was calculated by Litchfield-Wilcoxon method. This effect was examined according to the method of […]. 2, 725 (1963)], using male STD-ddY strain mice weighing 20-25 g. […] Rectal temperature of each mouse was measured 4 hours later with a thermister (Shibaura Electric, BMG III-130).

[2] = test system: spontaneous locomotor activity; assay: Inhibitory effect on spontaneous locomotor activity; assay type: in vivo, male STD-ddY strain mice; details: for ED50: Mus musculus, po, read-out: Spontan. locomotor ED50; for Inhibition of spontaneous locomotion (in words): p.o.
Description: (§1) Pharmacological experiments have been done on the compound of the present invention, some known and novel analogous compounds and an antidepressant on the market, as mentioned below. In the experiments, ED50 was calculated by Litchfield-Wilcoxon method.
Male mice of STD-ddY strain, weighing 20-25 g, were used in groups of 5 mice each. Each test compound was given orally to the mice in 5 different doses, and 2 hours later the spontaneous locomotor activity of each mouse was measured for 3 minutes by means of an Animex locomotor activity meter (made by Farad Electronics). ED50 was calculated for each compound. The ED50 means the dose of test compound in which the locomotor activity was reduced to 50% of that of control group receiving saline.

[3] = test system: methamphetamine-induced locomotor activity; assay: Anti-methamphetamine effect (inhibitory effect on methamphetamine-induced locomotor activity); assay type: in vivo, male STD-ddY strain mice; details: for ED50: Mus musculus, ip, read-out: Anti-methamphetamine ED50; for Antagonizing methamphetamine-induced locomotor activity (in words): i.p.
Description: as §1
Male STD-ddY strain mice, weighing 20-25 g, were used in groups of 10 mice each. Groups of mice were injected intraperitoneally with 4 mg/kg of methamphetamine, and 30 minutes later each test compound was injected intraperitoneally in 3 different doses. One hour after the injection of methamphetamine, locomotor activity of each mouse was measured for 10 minutes with an Animex locomotor activity meter.

[4] = test system: catalepsy induced by reserpine; assay: Anti-reserpine activity: antagonistic effect on catalepsy induced by reserpine; assay type: in vivo, male STD-ddY strain mice; details: for ED50: Mus musculus, po, 1 h
Description: In the experiments, ED50 was calculated by Litchfield-Wilcoxon method. Male STD-ddY strain mice, weighing […], were used in groups of 10 mice each. […] The mice were tested for catalepsy 1 hour after the administration of test compounds. ED50 was calculated for each compound.

[5] = test system: spontaneous and methamphetamine-induced locomotor activities; assay: Neuroleptics-like activity, overall (Test 2); assay type: in vivo, male STD-ddY strain mice; details: overall conclusion
[6] = test system: antidepressant activity; assay: Antidepressant activity, overall (Test 1); assay type: in vivo, male STD-ddY strain mice; male Wistar strain rats; details: for Antidepressant activity (in words): overall conclusion
Description: This effect was examined according to the method of […]. 2, 725 (1963)], using male STD-ddY strain mice weighing 20-25 g. […] Rectal temperature of each mouse was measured 4 hours later with a thermister (Shibaura Electric, BMG III-130). […] Male STD-ddY strain mice, weighing […], were used in groups of 10 mice each. […] The mice were tested for catalepsy 1 hour after the administration of test compounds. ED50 was calculated for each compound. […] Male STD-ddY strain mice, weighing 20-25 g, were used in groups of 10 mice each. […] Two hours after the tetrabenazine injection, the degree of eyelid closure (ptosis) was assessed on the basis of macroscopic scoring (0: no closure of the eyelid, 1: 1/4 closure, 2: 2/4 closure, 3: 3/4 closure and 4: complete closure), essentially according to the method of P. A. J. Janssen [Arzneim. Forsch. 15, 104 (1965)]. ED50 was calcuated for each compound. […] Male Wistar strain rats, weighing 240-260 g, which had developed mouse-killing behavior after ablation of the olfactory bulb according to the method of Z. P. Horovitz [Int. J. Neuropharmacol. 5, 405 (1966)], were used in groups of 15 animals each. […] ED50 was calculated for each compound.

[7] = test system: ptosis induced by tetrabenazine; assay: Anti-tetrabenazine activity: antagonistic effect on ptosis induced by tetrabenazine; assay type: in vivo, male STD-ddY strain mice; details: Mus musculus, po; tetrabenazine 70 mg/kg i.p.; Table 2
Description: Pharmacological experiments have been done on the compound of the present invention, some known and novel analogous compounds and an antidepressant on the market, as mentioned below. In the experiments, ED50 was calculated by Litchfield-Wilcoxon method. Male STD-ddY strain mice, weighing 20-25 g, were used in groups of 10 mice each. […] Two hours after the tetrabenazine injection, the degree of eyelid closure (ptosis) was assessed on the basis of macroscopic scoring (0: no closure of the eyelid, 1: 1/4 closure, 2: 2/4 closure, 3: 3/4 closure and 4: complete closure), essentially according to the method of P. A. J. Janssen [Arzneim. Forsch. 15, 104 (1965)]. ED50 was calcuated for each compound.

[8] = test system: brain 3-methoxy-4-hydroxyphenylethylene glycol sulfate (MOPEG-SO4); assay: Effect on brain monoamine metabolites: MOPEG-SO4; assay type: in vivo, male Wistar strain rats; details: 100 mg/kg p.o.; for Brain MOPEG-SO4, % of control: *P<0.01
Description: (§2) Each test compound was given orally to the rats in a dose of 100 mg/kg and, 1, 3 and 6 hours later the rats were sacrificed. […] The concentrations of the monoamine metabolites were calculated in terms of ng/g wet brain tissue and expressed as % of the concentrations of controls receiving saline.

[9] = test system: tremorine-induced tremor; assay: Anti-tremorine activity (antagonistic effect on tremorine-induced tremor); assay type: in vivo, male STD-ddY strain mice; details: Mus musculus, po, read-out: Anti-tremorine activity ED50
Description: as §1
Male STD-ddY strain mice, weighing 20-25 g, were used in groups of 5 mice each. Each test compound was given orally to the mice in 5 different doses, and 2 hours later 20 mg/kg of tremorine was injected intraperitoneally. Half an hour after the injection of tremorine, each mouse was examined macroscopically for tremor severity, according to the rating scale with the scores 0, 1, 2, and 3 depending on the severity. ED50 was calculated for each compound. The ED50 means the dose of test compound in which the tremorine-induced tremor was inhibited by 50% in severity.

[10] = test system: brain 5-hydroxyindoleacetic acid (5-HIAA); assay: Effect on brain monoamine metabolites: 5-HIAA; assay type: in vivo, male Wistar strain rats; details: 100 mg/kg p.o., *P<0.01
Description: as §2

[11] = test system: mouse-killing behavior of olfactory bulb-ablated rats; assay: Suppressing effect on mouse-killing behavior in olfactory bulb-ablated rats; assay type: in vivo, male Wistar strain rats; details: Rattus norvegicus, ip, 1 h, read-out: Suppressing effect on mouse-killing behavior of olfactory bulb-ablated rats, ED50
Description: as §1
Male Wistar strain rats, weighing 240-260 g, which had developed mouse-killing behavior after ablation of the olfactory bulb according to the method of Z. P. Horovitz [Int. J. Neuropharmacol. 5, 405 (1966)], were used in groups of 15 animals each. Each test compound was given intraperitoneally to the rats in 6 different doses, and 1 hours later the rats were each tested as to whether they killed a mouse or not. ED50 was calculated for each compound.

[12] = test system: brain homovanillic acid (HVA); assay: Effect on brain monoamine metabolites: HVA; assay type: in vivo, male Wistar strain rats; details: 100 mg/kg p.o.; for Brain HVA, % of control: *P<0.01
Description: as §2

[13] = Table 1, read-out: Anti-reserpine activity ED50, hypothermia
[14] = p.o., reserpine 5 mg/kg i.p., Table 1, read-out: Anti-reserpine activity ED50, catalepsy
[15] = Table 2, read-out: Anti-reserpine ED50, hypothermia
[16] = p.o., reserpine 5 mg/kg i.p., Table 2, read-out: Anti-reserpine ED50, catalepsy

Compound	ED50 [1, 13]	ED50 ([2]; 2 hours after dosing)	Inhibition of spontaneous locomotion (in words) [2]	ED50 ([3]; methamphetamine 4 mg/kg i.p.)	Antagonizing methamphetamine-induced locomotor activity (in words) [3]	Neuroleptics-like activity (in words) [5]	Antidepressant activity (in words) [6]	ED50 [1, 15]	ED50 [7]	ED50 [4, 16]	further results
CN1CCN(c2cc(-c3ccccc3)c3cc(Cl)ccc3n2)CC1.Cl.Cl [Compound 1, 6-Chloro-2-(4-methyl-1-piperazinyl)-4-phenylquinoline dihydrochloride]	30.8 mg/kg	> 200 mg/kg	devoid of both activities	> 30 mg/kg	devoid of both activities	not seen	–	–	–	–	Activity in antagonizing reserpine hypothermia relative to compound A ([1]; versus compound A): 5 times less active; ED50 [4, 14]: 20 mg/kg; Activity in antagonizing reserpine catalepsy relative to compound A ([4]; versus compound A, p.o.): 13 times less active
Clc1ccc2nc(N3CCN(c4ccccc4)CC3)cc(-c3ccccc3)c2c1 [Compound 2, 6Chloro-2-(4-phenyl-1-piperazinyl)-4-phenylquinoline]	> 100 mg/kg	> 200 mg/kg	devoid of both activities	> 30 mg/kg	devoid of both activities	not seen	–	–	–	–	Anti-reserpine activity (in words) ([6]; hypothermia and catalepsy, p.o.): devoid of the anit-reserpine activity; ED50 [4, 14]: > 100 mg/kg
CN1CCN(c2cc(-c3ccccc3)c3ccccc3n2)CC1 [Compound 3, 2-(4-Methyl-1-piperazinyl)-4-phenylquinoline]	–	56.4 mg/kg	as potent as compound A	12.9 mg/kg	somewhat less potent	comparable to compound A	much less potent than the latter	13.9 mg/kg	10.4 mg/kg	4.7 mg/kg	–
CCCN1CCN(c2cc(-c3ccccc3)c3ccccc3n2)CC1.Cl.Cl [Compound 4, 2-(4-n-Propyl-1-piperazinyl)-4-phenylquinoline dihydrochloride]	–	62.2 mg/kg	as potent as compound A	13.2 mg/kg	somewhat less potent	–	inferior to compound A	13.6 mg/kg	8.2 mg/kg	4.4 mg/kg	–
CCCCN1CCN(c2cc(-c3ccccc3)c3ccccc3n2)CC1.O=C(O)/C=C\C(=O)O.O=C(O)/C=C\C(=O)O [Compound 5, 2-(4-n-Butyl-1-piperazinyl)-4-phenylquinoline dimaleate]	–	50.6 mg/kg	as potent as compound A	16.4 mg/kg	somewhat less potent	–	inferior to compound A	13.7 mg/kg	29.9 mg/kg	6.3 mg/kg	–
CN(C)CCCN1c2ccccc2CCc2ccccc21 [Compound 6, 5-(3-dimethylaminopropyl)-10,11-dihydro-5H-dibenz[b,f]azepine]	21.5 mg/kg	–	devoid of both activities	–	devoid of both activities	not seen	–	21.5 mg/kg	4.9 mg/kg	–	Brain MOPEG-SO4 concentration / noradrenaline turnover (in words) [8]: significant decrease in brain MOPEG-SO4 concentration; Brain MOPEG-SO4, % of control ([8]; 1 hour): 87 % of control; Brain MOPEG-SO4, % of control ([8]; 3 hours): 80 % of control; Brain MOPEG-SO4, % of control ([8]; 6 hours): 70 % of control; ED50 ([2]; 2 h): > 200 mg/kg; ED50 [9]: 48.3 mg/kg; ED50 [3]: > 30 mg/kg; Brain 5-HIAA, % of control ([10]; 1 hour): 88 % of control; Brain 5-HIAA, % of control ([10]; 3 hours): 84 % of control; Brain 5-HIAA, % of control ([10]; 6 hours): 73 % of control; ED50 ([4]; read-out: Anti-reserpine ED50, catalepsy): 38.3 mg/kg; ED50 ([4]; read-out: Anti-reserpine activity ED50, catalepsy): 38.3 mg/kg; ED50 [11]: 5.5 mg/kg; Brain HVA concentration / dopamine turnover (in words) [12]: devoid of such activity; Brain HVA, % of control ([12]; 1 hour): 110 % of control; Brain HVA, % of control ([12]; 3 hours): 98 % of control
CN(C)CCCN1c2ccccc2Sc2ccc(Cl)cc21 [Compound 7, 2chloro-10-(3-dimethylaminopropyl)phenothiazine]	–	–	–	–	–	–	–	–	–	–	ED50 ([2]; 2 h): 7.4 mg/kg; ED50 [3]: 1 mg/kg
OC(CCN1CCCCC1)(c1ccccc1)C1CC2C=CC1C2 (stereo not shown) [Compound 8, 5-norbornen-2-yl-phenyl-1-piperidinepropanol]	–	–	–	–	–	–	–	–	–	–	ED50 [9]: 11.4 mg/kg
